Experimental data reported in patent publication US20240245711A1, “A 19-NOR C3,3-DISUBSTITUTED C21-N-PYRAZOLYL STEROID FOR THE TREATMENT OF MAJOR DEPRESSIVE DISORDER” (Sage Therapeutics, Inc., priority 2021, published 2024).
Values joined by “and” are separate entries in the source; they are usually repeats but may differ in a detail not shown here. Identical values can stand only once.

Test system: adult subjects with Major Depressive Disorder
Assay: Phase 3 open-label 1-year study: HAM-D total score, response and remission
Assay type: in vivo, human
Source text: Secondary Objective: To assess the need for re-treatment with Compound (1) following initial treatment in adults with MDD currently experiencing an MDE over a 1-year period, and to assess the response of initial treatment and re-treatment(s) with Compound (1) following an initial 2-week treatment period in adults with MDD currently experiencing an MDE over a 1-year period.
Secondary Endpoints: The need for re-treatment with Compound (1) as assessed by: time to first re-treatment (Kaplan-Meier curves), number of subjects achieving the requirements for re-treatment, number of re-treatment cycles for each subject, the response of initial treatment and/or re-treatment as assessed by: change from baseline in the 17-item Hamilton Rating Scale for Depression (HAM-D) total score at the end of each 14-day treatment (initial and/or re-treatment) period, HAM-D response at the end of each 14-day treatment (initial and/or re-treatment) period, defined as a ≥50% reduction in HAM-D score from baseline, HAM-D remission at the end of each 14-day treatment (initial and/or re-treatment) period, defined as HAM-D total score≤7, Clinical Global Impression-Improvement (CGI-I) response, defined as “much improved” or “very much improved”, at the end of each 14-day treatment (initial and/or re-treatment) period, change from baseline in Clinical Global Impression-Severity (CGI-S) score at the end of each 14-day treatment (initial and/or re-treatment) period.
Study Population: Subjects were 18-75 years old, diagnosed with major depressive disorder (MDD) with a MADRS total score of ≥28 and a HAM-D total score of ≥20 at Screening and Day 1 (prior to dosing).
Treatment Groups: The 30 mg and 50 mg dose groups were separated by time of enrollment. The study is comprised of two cohorts: one with Compound (1) 30 mg as a starting dose (30 mg Cohort: n=725), an initial cohort with Compound (1) 50 mg as a starting dose (50 mg Cohort: n=199). A patient receiving Compound (1) 30 mg could be dose reduced to 20 mg and patients receiving Compound (1) 50 mg could be dose reduced to 40 mg (based on tolerability). In all cohorts, Compound (1) is self-administered by patients as an oral therapy once nightly with food for 14 days.
Eligible subjects were given Compound (1)—to be taken at home in the evening with meal.
The cohorts pertaining to the different doses that the subjects received were defined as following: • 50 mg cohort: This cohort includes subjects who have initiated treatment with 50 mg and received re-treatment with 50 mg only. • 30 mg cohort: This cohort includes subjects who have initiated treatment with 30 mg regardless of the dose they have received in re-treatments. • Low dose cohort: This cohort includes subjects who have initiated treatment with 30 mg and received re-treatment with 30 mg only. • Dose switch cohort: This cohort includes subjects who have received initial treatment with 30 mg and at least one subsequent re-treatment with 50 mg. • Study Period X: starts on the date of the first dose of Compound (1) in cycle X and goes up to one day prior to the first dose of the next cycle. In some embodiments, X is any number from 1 to 5. • Treatment Period X: starts on the date of the first dose of Compound (1) in cycle X and goes up to one day after the last dose in cycle X. In some embodiments, X is any number from 1 to 5. • Treatment Cycle X: starts on the date of the first dose of Compound (1) in cycle X and goes up to 14 days after the last dose in cycle X. The treatment cycles may be denoted as C1-C5. • Observation period X: starts the day after Treatment Cycle X ends and goes up to one day prior to the start of next treatment cycle. In some embodiments, X is any number from 1 to 5.
Analysis Sets: The safety set was defined as all subjects who were administered study drug. The period-specific safety set includes subjects in the safety set who were administered study drug in the corresponding treatment cycle. […]

[1] = Study Period 1, safety set, 30 mg Cohort (N = 725), Day 126
[2] = Study Period 1, safety set, 50 mg Cohort (N = 199), Day 8
[3] = Study Period 1, safety set, 50 mg Cohort (N = 199), Day 15
[4] = Study Period 1, safety set, 50 mg Cohort (N = 199), Day 28
[5] = Study Period 1, safety set, 50 mg Cohort (N = 199), Day 70
[6] = Study Period 1, safety set, 50 mg Cohort (N = 199), Day 126
[7] = baseline HAM-D score ≥24, Study Period 1, 30 mg Cohort (N = 458), Day 8
[8] = baseline HAM-D score ≥24, Study Period 1, 30 mg Cohort (N = 458), Day 15
[9] = baseline HAM-D score ≥24, Study Period 1, 30 mg Cohort (N = 458), Day 28
[10] = baseline HAM-D score ≥24, Study Period 1, 30 mg Cohort (N = 458), Day 70
[11] = baseline HAM-D score ≥24, Study Period 1, 30 mg Cohort (N = 458), Day 126
[12] = baseline HAM-D score ≥24, Study Period 1, 50 mg Cohort (N = 127), Day 8
[13] = baseline HAM-D score ≥24, Study Period 1, 50 mg Cohort (N = 127), Day 15

C[C@@]1(O)CC[C@H]2[C@H](CC[C@@H]3[C@@H]2CC[C@]2(C)[C@@H](C(=O)Cn4cc(C#N)cn4)CC[C@@H]32)C1 [Compound (1), 1-(2-((3R,5R,8R,9R,10S,13S,14S,17S)-3-hydroxy-3,13-dimethylhexadecahydro-1H-cyclopenta[a]phenanthren-17-yl)-2-oxoethyl)-1H-pyrazole-4-carbonitrile]
HAM-D Response [1]: 144/203 (70.9%) | HAM-D total score, Mean % CFB ± SD [1]: −62.3 ± 30.36% | HAM-D total score, Mean CFB ± SD [1]: −15.7 ± 8.07 | HAM-D Remission [2]: 37/193 (19.2%) | HAM-D Response [2]: 97/193 (50.3%) | HAM-D total score, Mean % CFB ± SD [2]: −49.2 ± 22.41% | HAM-D total score, Mean CFB ± SD [2]: −12.3 ± 5.79 | HAM-D total score, Mean % CFB ± SD [3]: −63.6 ± 22.70% | HAM-D total score, Mean CFB ± SD [3]: −16±6.0 and −16.0±6.04 | HAM-D Remission [4]: 72/191 (37.7%) | HAM-D Response [4]: 120/191 (62.8%) | HAM-D total score, Mean % CFB ± SD [4]: −58.3 ± 26.05% | HAM-D total score, Mean CFB ± SD [4]: −14.6 ± 6.75 | HAM-D Remission [5]: 41/118 (34.7%) | HAM-D Response [5]: 69/118 (58.5%) | HAM-D total score, Mean % CFB ± SD [5]: −53.7 ± 28.40% | HAM-D total score, Mean CFB ± SD [5]: −13.6 ± 7.45 | HAM-D Remission [6]: 19/30 (63.3%) | HAM-D Response [6]: 22/30 (73.3%) | HAM-D total score, Mean % CFB ± SD [6]: −65.2 ± 33.96% | HAM-D total score, Mean CFB ± SD [6]: −16.3 ± 9.06 | HAM-D Remission [7]: 70/446 (15.7%) | HAM-D Response [7]: 192/446 (43.0%) | HAM-D total score, Mean % CFB ± SD [7]: −43.3 ± 25.63% | HAM-D total score, Mean CFB ± SD [7]: −12.0 ± 7.17 | HAM-D Remission [8]: 164 (37.9%) and 164/433 (37.9%) | HAM-D Response [8]: 319 (73.7%) and 319/433 (73.7%) | HAM-D total score, Mean % CFB ± SD [8]: −60.9 ± 25.50% | HAM-D total score, Mean CFB ± SD [8]: −16.9 ± 7.34 | HAM-D Remission [9]: 132/431 (30.6%) | HAM-D Response [9]: 250/431 (58.0%) | HAM-D total score, Mean % CFB ± SD [9]: −53.9 ± 28.59% | HAM-D total score, Mean CFB ± SD [9]: −15.0 ± 8.27 | HAM-D Remission [10]: 70/247 (28.3%) | HAM-D Response [10]: 125/247 (50.6%) | HAM-D total score, Mean % CFB ± SD [10]: −49.2 ± 32.86% | HAM-D total score, Mean CFB ± SD [10]: −13.8 ± 9.39 | HAM-D Remission [11]: 58/120 (48.3%) | HAM-D Response [11]: 90/120 (75.0%) | HAM-D total score, Mean % CFB ± SD [11]: −66.0 ± 28.29% | HAM-D total score, Mean CFB ± SD [11]: −18.2 ± 7.88 | HAM-D Remission [12]: 18/122 (14.8%) | HAM-D Response [12]: 61/122 (50.0%) | HAM-D total score, Mean % CFB ± SD [12]: −49.3 ± 21.32% | HAM-D total score, Mean CFB ± SD [12]: −13.3 ± 5.87 | HAM-D Remission [13]: 44 (37.3%) and 44/118 (37.3%) | HAM-D Response [13]: 94 (79.7%) and 94/118 (79.7%) | HAM-D total score, Mean % CFB ± SD [13]: −64.1 ± 21.73% | HAM-D total score, Mean CFB ± SD [13]: −17.4 ± 6.05 | HAM-D Remission (baseline HAM-D score ≥24, Study Period 1, 50 mg Cohort (N = 127), Day 28): 41/120 (34.2%)
